Where two headings read alike, the source gives them in different places.
Assays:
Assay type in all cases: cell-based, human
SMN2 mRNA = test: Splicing RT-qPCR gene panel, SMN2 canonical junction (CJ) mRNA; conditions: Tables 4A/4B, read-out: SMN2 (IC50, decrease in CJ mRNA, gene panel)
Summary of the method: (§1)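 Cells (A673 in DMEM/10% FBS, K562 in IMDM/10% FBS) got compound for 24 h, top dose 10 uM, 11 points, 3-fold steps, DMSO ≤0.25%. Lysates went to RT-qPCR for the canonical exon-exon junction; ΔΔCt against housekeeper and DMSO gave RQ, then percentage response.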

MYB mRNA = test: Splicing RT-qPCR assay, MYB canonical (CJ) and alternative (AJ) junction mRNA; conditions: for AC50: read-out: MYB AJ (AC50, increase in alternative junction mRNA)
Summary of the method: (§2)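 Canonical (CJ) and alternative-exon (AJ) junction mRNAs quantified by one-step RT-qPCR in cell lysates, normalized to housekeeping PPIA for A673 and GAPDH or GUSB for K562. Cells were exposed 24 h at 37 °C to 11-point 3-fold compound series from 10 uM final, with DMSO at or below 0.25%.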

HTT mRNA [1] = test: Splicing RT-qPCR gene panel, HTT canonical junction (CJ) mRNA; conditions: Tables 4A/4B, read-out: HTT (IC50, decrease in CJ mRNA, gene panel)
Summary of the method: as §1

Target C mRNA = test: Splicing RT-qPCR gene panel, Target C canonical junction (CJ) mRNA; conditions: Tables 4A/4B, read-out: Target C (IC50, decrease in CJ mRNA, gene panel)
Summary of the method: as §1

HTT mRNA [2] = test: Splicing RT-qPCR assay, HTT canonical (CJ) and alternative (AJ) junction mRNA; conditions: A673 or K562 cells, 24 hours compound treatment; for IC50: read-out: HTT CJ (IC50, decrease in canonical junction mRNA); for AC50: read-out: HTT AJ (AC50, increase in alternative junction mRNA)
Summary of the method: as §2

[3] = Homo sapiens, 24 h, A673 or K562 cells, 24 hours compound treatment, RT-qPCR
[4] = Homo sapiens, 24 h, A673 or K562 cells, 24 hours compound treatment, RT-qPCR, read-out: MYB CJ (IC50, decrease in canonical junction mRNA)
[5] = Homo sapiens, Tables 4A/4B, canonical junction qPCR panel, read-out: MYB (IC50, decrease in CJ mRNA, gene panel)
[6] = A673 or K562 cells, 24 hours compound treatment, RT-qPCR
[7] = A673 or K562 cells, 24 hours compound treatment, RT-qPCR, read-out: MYB CJ (IC50, decrease in canonical junction mRNA)
[8] = Tables 4A/4B, canonical junction qPCR panel, read-out: MYB (IC50, decrease in CJ mRNA, gene panel)

Row | SMILES | IC50 (SMN2 mRNA; Homo sapiens) | AC50 (MYB mRNA; [3]) | IC50 (MYB mRNA; [4]) | IC50 (MYB mRNA; [5]) | IC50 (HTT mRNA [1]; Homo sapiens) | IC50 (Target C mRNA; Homo sapiens) | IC50 (HTT mRNA [2]; Homo sapiens, 24 h) | AC50 (HTT mRNA [2]; Homo sapiens) | AC50 (MYB mRNA; [6]) | IC50 (MYB mRNA; [7]) | IC50 (MYB mRNA; [8]) | IC50 (HTT mRNA [1]) | IC50 (Target C mRNA) | IC50 (HTT mRNA [2]) | IC50 (SMN2 mRNA) | AC50 (HTT mRNA [2])
1 | CN[C@@H]1CCN(c2ccc(C(=O)Nc3cn4cc(C)nc4c(OC)n3)c3nn(CCOC)cc23)C1 [Compound 431, (R)—N-(8-methoxy-2-methylimidazo[1,2-a]pyrazin-6-yl)-2-(2-methoxyethyl)-4-(3-(methylamino)pyrrolidin-1-yl)-2H-indazole-7-carboxamide] | < 100 nM | 100 to 1000 nM | 100 to 1000 nM | < 100 nM | 1000 to 10000 nM | 1000 to 10000 nM | > 10000 nM | > 10000 nM |  |  |  |  |  |  |  | 
2 | CN[C@H]1CCN(c2ccc(C(=O)Nc3cn4cc(C)nc4c(OC)n3)c3nn(CCOC)cc23)C1 [Compound 432, (S)—N-(8-methoxy-2-methylimidazo[1,2-a]pyrazin-6-yl)-2-(2-methoxyethyl)-4-(3-(methylamino)pyrrolidin-1-yl)-2H-indazole-7-carboxamide] | < 100 nM | < 100 nM | < 100 nM | 100 to 1000 nM | > 10000 nM | > 10000 nM | > 10000 nM | > 10000 nM |  |  |  |  |  |  |  | 
3 | CCOc1nc(NC(=O)c2ccc(N3CC[C@H](NC)C3)c3cn(C)nc23)cn2cc(C)nc12 [Compound 434] | < 100 nM | 1000 to 10000 nM | 100 to 1000 nM | < 100 nM | > 10000 nM | > 10000 nM | 1000 to 10000 nM | 1000 to 10000 nM |  |  |  |  |  |  |  | 
4 | Cc1cn2cc(NC(=O)c3ccc(N4CCNCC4)c4nnn(C)c34)cc(F)c2n1 [Compound 435, N-{8-fluoro-2-methylimidazo[1,2-a]pyridin-6-yl}-3-methyl-7-(piperazin-1-yl)-1,2,3-benzotriazole-4-carboxamide] | < 100 nM | > 10000 nM | > 10000 nM | 100 to 1000 nM | 1000 to 10000 nM | 1000 to 10000 nM | > 10000 nM | > 10000 nM |  |  |  |  |  |  |  | 
5 | Cc1cn2cc(NC(=O)c3ccc(N4CCNCC4)c4c3nnn4C)cc(F)c2n1 [Compound 436, N-{8-fluoro-2-methylimidazo[1,2-a]pyridin-6-yl}-1-methyl-7-(piperazin-1-yl)-1,2,3-benzotriazole-4-carboxamide] | > 10000 nM | 100 to 1000 nM | 100 to 1000 nM | > 10000 nM | > 10000 nM | > 10000 nM | > 10000 nM | > 10000 nM |  |  |  |  |  |  |  | 
6 | CCn1cc2c(N3CC[C@H](NC)C3)ccc(C(=O)Nc3cc(F)c4nc(C)cn4c3)c2n1 [Compound 437, (S)-2-ethyl-N-(8-fluoro-2-methylimidazo[1,2-a]pyridin-6-yl)-4-(3-(methylamino)pyrrolidin-1-yl)-2H-indazole-7-carboxamide] | < 100 nM | < 100 nM | < 100 nM | 100 to 1000 nM | > 10000 nM | > 10000 nM | 1000 to 10000 nM | 1000 to 10000 nM |  |  |  |  |  |  |  | 
7 | CN[C@@H]1CCN(c2ccc(C(=O)Nc3cn4cc(C)nc4c(OC)n3)c3nn(C)cc23)C1 [Compound 441] | < 100 nM | < 100 nM | < 100 nM | < 100 nM | 1000 to 10000 nM | > 10000 nM | 1000 to 10000 nM | 1000 to 10000 nM |  |  |  |  |  |  |  | 
8 | CN[C@H]1CCN(c2ccc(C(=O)Nc3cn4cc(C)nc4c(OC)n3)c3nn(C)cc23)C1 [Compound 442] | < 100 nM | 100 to 1000 nM | 100 to 1000 nM | < 100 nM | 1000 to 10000 nM | > 10000 nM | 1000 to 10000 nM | > 10000 nM |  |  |  |  |  |  |  | 
9 | CCNC1CCN(c2ccc(C(=O)Nc3cc(F)c4nc(C)sc4c3)c3nn(C)cc23)CC1 [Compound 443, 4-[4-(ethylamino)piperidin-1-yl]-N-(4-fluoro-2-methyl-1,3-benzothiazol-6-yl)-2-methylindazole-7-carboxamide] | < 100 nM | < 100 nM | < 100 nM | 100 to 1000 nM | 1000 to 10000 nM | > 10000 nM | 1000 to 10000 nM | 1000 to 10000 nM |  |  |  |  |  |  |  | 
10 | Cc1cn2cc(NC(=O)c3ccc(N4CCNCC4)c4cn(C)nc34)c(C#N)cc2n1 [Compound 444, N-{7-cyano-2-methylimidazo[1,2-a]pyridin-6-yl}-2-methyl-4-(piperazin-1-yl) indazole-7-carboxamide] | < 100 nM |  |  |  |  |  |  | > 10000 nM | 100 to 1000 nM | 100 to 1000 nM | < 100 nM | 1000 to 10000 nM | 1000 to 10000 nM | 1000 to 10000 nM |  | 
11 | Cc1cn2cc(NC(=O)c3ccc(N4CCNC[C@@H]4C)c4cn(C)nc34)cc(F)c2n1 [Compound 446, N-{8-fluoro-2-methylimidazo[1,2-a]pyridin-6-yl}-2-methyl-4-[(2S)-2-methylpiperazin-1-yl]indazole-7-carboxamide] | < 100 nM | 100 to 1000 nM | 100 to 1000 nM | 100 to 1000 nM | 1000 to 10000 nM | 1000 to 10000 nM | 1000 to 10000 nM | 1000 to 10000 nM |  |  |  |  |  |  |  | 
12 | Cc1cn2cc(NC(=O)c3ccc(N4CCNC[C@H]4C)c4cn(C)nc34)cc(F)c2n1 [Compound 447, N-{8-fluoro-2-methylimidazo[1,2-a]pyridin-6-yl}-2-methyl-4-[(2R)-2-methylpiperazin-1-yl]indazole-7-carboxamide] | < 100 nM | < 100 nM | < 100 nM | 100 to 1000 nM | 1000 to 10000 nM | 1000 to 10000 nM | 100 to 1000 nM | 100 to 1000 nM |  |  |  |  |  |  |  | 
13 | CNC1CCN(c2ccc(C(=O)Nc3cc(F)c4nc(C)cn4c3)c3nn(C)cc23)CC1 [Compound 448, N-{8-fluoro-2-methylimidazo[1,2-a]pyridin-6-yl}-2-methyl-4-[4-(methylamino)piperidin-1-yl]indazole-7-carboxamide] | < 100 nM | < 100 nM | < 100 nM | < 100 nM | 100 to 1000 nM | 1000 to 10000 nM | 100 to 1000 nM | 1000 to 10000 nM |  |  |  |  |  |  |  | 
14 | CCn1cc2c(N3CCN(C)CC3)ccc(C(=O)Nc3cc(F)c4nc(CO)oc4c3)c2n1 [Compound 450, 2-ethyl-N-[4-fluoro-2-(hydroxymethyl)-1,3-benzoxazol-6-yl]-4-(4-methylpiperazin-1-yl) indazole-7-carboxamide] | < 100 nM | > 10000 nM | > 10000 nM | < 100 nM | 100 to 1000 nM | 1000 to 10000 nM | > 10000 nM | > 10000 nM |  |  |  |  |  |  |  | 
15 | Cc1cn2cc(NC(=O)c3ccc(N4CCNCC4)c4cn(C)nc34)c(=O)n(C)c2n1 [Compound 451, N-{2,8-dimethyl-7-oxoimidazo[1,2-a]pyrimidin-6-yl}-2-methyl-4-(piperazin-1-yl) indazole-7-carboxamide] | > 10000 nM | 1000 to 10000 nM | 1000 to 10000 nM | > 10000 nM | > 10000 nM | > 10000 nM | > 10000 nM | > 10000 nM |  |  |  |  |  |  |  | 
16 | Cc1cn2cc(NC(=O)c3ccc(N4CCNCC4)c4cn(C)nc34)c(C#N)cc2n1 [Compound 452, N-{7-cyano-2-methylimidazo[1,2-a]pyridin-6-yl}-2-methyl-4-(piperazin-1-yl) indazole-7-carboxamide] |  |  |  |  |  |  |  |  | 1000 to 10000 nM | 1000 to 10000 nM | 1000 to 10000 nM | > 10000 nM | > 10000 nM | > 10000 nM | 100 to 1000 nM | > 10000 nM
17 | CCn1cc2c(N3CCNC(CF)C3)ccc(C(=O)Nc3cc(F)c4nc(C)cn4c3)c2n1 (stereo not drawn) [Compound 453, 2-ethyl-N-{8-fluoro-2-methylimidazo[1,2-a]pyridin-6-yl}-4-[3-(fluoromethyl)piperazin-1-yl]indazole-7-carboxamide] | 100 to 1000 nM | 1000 to 10000 nM | 1000 to 10000 nM | 1000 to 10000 nM | > 10000 nM | > 10000 nM | > 10000 nM | > 10000 nM |  |  |  |  |  |  |  | 
18 | CCn1cc2c(C3OCC(C)(N)CO3)ccc(C(=O)Nc3cc(F)c4nc(C)cn4c3)c2n1 (stereo not drawn) [Compound 454, 4-(5-amino-5-methyl-1,3-dioxan-2-yl)-2-ethyl-N-{8-fluoro-2-methylimidazo[1,2-a]pyridin-6-yl}indazole-7-carboxamide] | < 100 nM | 1000 to 10000 nM | 100 to 1000 nM | 1000 to 10000 nM | > 10000 nM | > 10000 nM | 1000 to 10000 nM | 1000 to 10000 nM |  |  |  |  |  |  |  | 
